Source: patent US20240166635A1, “AMINOHETEROARYL KINASE INHIBITORS” (Anrui Biomedical Technology (Guangzhou) Co.,Ltd., priority 2020, published 2024)
Where two headings read alike, the source gives them in different places.

Columns and labels:
ER+BC = settings: cited from earlier work
CDK2/CyclinE1 = CDK2/CyclinE1 (Homo sapiens (Human), UniProt P24941); assay: CDK2/CyclinE1 kinase inhibitory activity (Caliper mobility shift); type: biochemical; settings: read-out: CDK2/Cyclin El IC50
CDK1/CyclinB = CDK1/CyclinB (Homo sapiens (Human), UniProt P06493); assay: CDK1/CyclinB kinase inhibitory activity (Caliper mobility shift); type: biochemical; settings: read-out: CDK1/Cyclin B1 IC50
Sequence of CDK1/CyclinB (P06493 whole entry): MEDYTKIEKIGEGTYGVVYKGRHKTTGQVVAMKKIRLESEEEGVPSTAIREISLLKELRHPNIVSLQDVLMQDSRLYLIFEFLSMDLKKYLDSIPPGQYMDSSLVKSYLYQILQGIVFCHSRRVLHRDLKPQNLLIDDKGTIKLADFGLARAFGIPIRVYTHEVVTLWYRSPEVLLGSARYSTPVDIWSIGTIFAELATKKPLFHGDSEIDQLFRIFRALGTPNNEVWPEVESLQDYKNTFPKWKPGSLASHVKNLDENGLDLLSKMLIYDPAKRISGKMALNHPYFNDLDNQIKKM
Sequence of CDK1/CyclinB (P14635 whole entry partner): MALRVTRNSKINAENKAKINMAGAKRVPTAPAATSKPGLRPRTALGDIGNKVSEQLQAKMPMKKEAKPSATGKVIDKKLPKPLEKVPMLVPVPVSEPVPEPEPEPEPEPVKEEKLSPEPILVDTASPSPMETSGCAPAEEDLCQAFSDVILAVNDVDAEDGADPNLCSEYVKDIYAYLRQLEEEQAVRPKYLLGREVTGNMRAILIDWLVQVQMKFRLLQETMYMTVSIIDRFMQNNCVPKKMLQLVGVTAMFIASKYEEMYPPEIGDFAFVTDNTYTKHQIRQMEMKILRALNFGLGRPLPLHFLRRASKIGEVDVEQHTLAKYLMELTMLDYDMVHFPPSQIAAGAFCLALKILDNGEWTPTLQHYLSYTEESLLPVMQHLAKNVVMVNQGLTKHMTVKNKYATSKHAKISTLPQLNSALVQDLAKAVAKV

CDK4/Cyclin D1 = CDK4/Cyclin D1 (Homo sapiens (Human), UniProt P11802); assay: CDK4/CyclinD1 kinase inhibitory activity (Caliper mobility shift); type: biochemical
Sequence of CDK4/Cyclin D1 (P11802 whole entry): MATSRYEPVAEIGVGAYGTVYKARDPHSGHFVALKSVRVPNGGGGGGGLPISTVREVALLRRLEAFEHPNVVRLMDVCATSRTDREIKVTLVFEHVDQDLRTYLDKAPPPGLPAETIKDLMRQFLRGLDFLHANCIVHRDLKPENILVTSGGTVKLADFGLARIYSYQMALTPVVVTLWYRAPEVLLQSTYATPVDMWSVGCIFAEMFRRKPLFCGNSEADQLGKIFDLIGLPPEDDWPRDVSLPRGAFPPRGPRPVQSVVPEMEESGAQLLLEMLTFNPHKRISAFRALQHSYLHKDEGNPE
Sequence of CDK4/Cyclin D1 (P24385 whole entry partner): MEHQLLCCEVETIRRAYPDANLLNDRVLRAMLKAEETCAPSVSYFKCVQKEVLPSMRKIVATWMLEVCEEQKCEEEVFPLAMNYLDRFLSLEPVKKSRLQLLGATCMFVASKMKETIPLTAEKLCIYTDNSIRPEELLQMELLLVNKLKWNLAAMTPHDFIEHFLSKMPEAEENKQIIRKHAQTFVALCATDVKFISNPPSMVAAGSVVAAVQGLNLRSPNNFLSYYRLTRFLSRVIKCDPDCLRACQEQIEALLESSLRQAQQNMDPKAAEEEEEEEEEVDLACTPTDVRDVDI

CDK6/CyclinD1 = CDK6/CyclinD1 (Homo sapiens (Human), UniProt Q00534); assay: CDK6/CyclinD1 kinase inhibitory activity (Caliper mobility shift); type: biochemical; settings: read-out: CDK6/Cyclin D1 IC50
Sequence of CDK6/CyclinD1 (Q00534 whole entry): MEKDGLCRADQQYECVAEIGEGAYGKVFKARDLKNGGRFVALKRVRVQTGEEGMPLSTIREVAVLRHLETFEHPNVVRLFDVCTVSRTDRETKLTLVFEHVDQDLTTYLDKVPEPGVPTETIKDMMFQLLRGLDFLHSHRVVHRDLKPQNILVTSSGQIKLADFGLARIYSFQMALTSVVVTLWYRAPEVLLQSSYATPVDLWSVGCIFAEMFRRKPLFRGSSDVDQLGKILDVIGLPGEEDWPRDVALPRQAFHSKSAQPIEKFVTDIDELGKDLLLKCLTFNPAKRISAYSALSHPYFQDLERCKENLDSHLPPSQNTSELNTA
Sequence of CDK6/CyclinD1 (P24385 whole entry partner): as the sequence (P24385 whole entry partner) above

CDK7/CyclinH/MAT1 = CDK7/CyclinH/MAT1 (Homo sapiens (Human), UniProt P50613); assay: CDK7/CyclinH/MAT1 kinase inhibitory activity (Caliper mobility shift); type: biochemical
Sequence of CDK7/CyclinH/MAT1 (P50613 whole entry): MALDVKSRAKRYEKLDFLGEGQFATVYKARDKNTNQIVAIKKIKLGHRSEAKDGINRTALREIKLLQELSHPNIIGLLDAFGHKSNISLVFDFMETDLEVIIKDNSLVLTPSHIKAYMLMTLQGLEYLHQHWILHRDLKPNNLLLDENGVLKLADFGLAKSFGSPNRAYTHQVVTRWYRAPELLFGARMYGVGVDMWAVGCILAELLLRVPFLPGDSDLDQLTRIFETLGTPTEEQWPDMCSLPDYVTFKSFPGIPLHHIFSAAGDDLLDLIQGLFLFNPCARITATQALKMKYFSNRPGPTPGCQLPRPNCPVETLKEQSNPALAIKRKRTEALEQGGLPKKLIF
Sequence of CDK7/CyclinH/MAT1 (P51946 whole entry partner): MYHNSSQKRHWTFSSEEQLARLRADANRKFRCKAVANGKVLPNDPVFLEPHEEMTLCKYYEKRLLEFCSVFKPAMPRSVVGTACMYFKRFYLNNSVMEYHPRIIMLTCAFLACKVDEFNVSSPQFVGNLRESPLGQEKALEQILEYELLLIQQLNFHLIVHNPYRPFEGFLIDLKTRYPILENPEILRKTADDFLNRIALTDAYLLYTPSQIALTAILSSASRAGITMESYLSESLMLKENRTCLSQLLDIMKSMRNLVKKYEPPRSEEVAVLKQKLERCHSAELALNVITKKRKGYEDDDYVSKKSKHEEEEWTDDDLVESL
Sequence of CDK7/CyclinH/MAT1 (P51948 whole entry partner): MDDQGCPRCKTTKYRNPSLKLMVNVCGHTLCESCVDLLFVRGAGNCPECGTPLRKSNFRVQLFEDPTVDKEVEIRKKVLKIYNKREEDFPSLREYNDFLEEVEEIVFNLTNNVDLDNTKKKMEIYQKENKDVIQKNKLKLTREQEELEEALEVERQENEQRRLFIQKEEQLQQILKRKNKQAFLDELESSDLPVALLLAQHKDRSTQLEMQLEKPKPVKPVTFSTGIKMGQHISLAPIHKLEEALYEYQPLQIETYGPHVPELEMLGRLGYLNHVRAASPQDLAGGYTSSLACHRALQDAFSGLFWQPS

CDK9/CyclinT1 = CDK9/CyclinT1 (Homo sapiens (Human), UniProt P50750); assay: CDK9/CyclinT1 kinase inhibitory activity (Caliper mobility shift); type: biochemical; settings: read-out: CDK9/Cyclin T1 IC50
Sequence of CDK9/CyclinT1 (P50750 whole entry): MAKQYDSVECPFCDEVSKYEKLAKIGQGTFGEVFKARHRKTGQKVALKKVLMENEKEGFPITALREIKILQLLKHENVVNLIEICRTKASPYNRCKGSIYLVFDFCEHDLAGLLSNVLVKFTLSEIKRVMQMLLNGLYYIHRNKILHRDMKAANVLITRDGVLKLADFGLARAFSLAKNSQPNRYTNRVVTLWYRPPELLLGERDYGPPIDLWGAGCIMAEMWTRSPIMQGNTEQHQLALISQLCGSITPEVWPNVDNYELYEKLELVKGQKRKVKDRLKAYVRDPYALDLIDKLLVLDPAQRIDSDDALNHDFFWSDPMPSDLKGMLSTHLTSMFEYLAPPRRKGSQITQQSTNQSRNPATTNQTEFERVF
Sequence of CDK9/CyclinT1 (O60563 whole entry partner): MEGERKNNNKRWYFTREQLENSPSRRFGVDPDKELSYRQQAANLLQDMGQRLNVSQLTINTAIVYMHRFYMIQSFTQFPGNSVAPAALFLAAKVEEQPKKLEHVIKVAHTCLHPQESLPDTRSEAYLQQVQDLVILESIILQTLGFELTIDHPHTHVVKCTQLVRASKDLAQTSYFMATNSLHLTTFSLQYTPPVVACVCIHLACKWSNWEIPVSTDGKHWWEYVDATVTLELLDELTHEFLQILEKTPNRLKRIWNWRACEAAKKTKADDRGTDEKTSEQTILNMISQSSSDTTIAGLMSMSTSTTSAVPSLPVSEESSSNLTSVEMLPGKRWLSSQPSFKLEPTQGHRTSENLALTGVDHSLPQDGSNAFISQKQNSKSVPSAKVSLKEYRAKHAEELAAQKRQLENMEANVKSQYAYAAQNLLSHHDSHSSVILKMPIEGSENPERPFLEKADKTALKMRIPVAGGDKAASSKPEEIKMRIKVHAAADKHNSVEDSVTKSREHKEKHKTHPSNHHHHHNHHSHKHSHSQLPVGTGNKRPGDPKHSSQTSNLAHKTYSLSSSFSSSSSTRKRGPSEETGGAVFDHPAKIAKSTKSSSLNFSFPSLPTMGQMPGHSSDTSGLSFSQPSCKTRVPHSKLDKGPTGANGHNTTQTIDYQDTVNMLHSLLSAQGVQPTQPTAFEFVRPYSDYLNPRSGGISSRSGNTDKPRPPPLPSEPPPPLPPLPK

Compound | IC50 (CDK2/CyclinE1) [nM] | IC50 (CDK1/CyclinB) [nM] | IC50 (CDK4/Cyclin D1) [nM] | IC50 (CDK6/CyclinD1) [nM] | IC50 (CDK7/CyclinH/MAT1) [nM] | IC50 (CDK9/CyclinT1) [nM] | median PFS (ER+BC; CCNE1 high) [month] | median PFS (ER+BC; CCNE1 low) [month]
Palbociclib plus fulvestrant [Palbociclib+fulvestrant] | – | – | – | – | – | – | 7.6 | 14.1
N#Cc1cnc(Nc2ccc(S(N)(=O)=O)cc2)nc1N1CCCCC1 [Example 65, 4-((5-cyano-4-(piperidin-1-yl)pyrimidin-2-yl)amino) benzenesulfonamide] | < 10 | 10 to 100 | 10 to 100 | 100 to 1000 | ≥ 1000 | 100 to 1000 | – | –
CS(=O)(=O)N1CCC(Nc2ncc(C(F)(F)F)c(OC3CCCCC3O)n2)CC1 (single isomer, unassigned) [Example 120a] | < 10 | 10 to 100 | 10 to 100 | 10 to 100 | 10 to 100 | 100 to 1000 | – | –
CNS(=O)(=O)N1CCC(Nc2ncc(C#N)c(OCC3(C)CCCC3)n2)CC1 [Example 55] | < 10 | 10 to 100 | < 10 | 10 to 100 | ≥ 1000 | 100 to 1000 | – | –
CC(C)CS(=O)(=O)N1CCC(Nc2ncc(C#N)c(OC3CCCC3(C)O)n2)CC1 (single isomer, unassigned) [Example 39a] | < 10 | 10 to 100 | 10 to 100 | < 10 | 100 to 1000 | 100 to 1000 | – | –
CC1(COc2nc(Nc3ccc(S(N)(=O)=O)cc3)ncc2C#N)CCCC1 [Example 12] | < 10 | 10 to 100 | < 10 | 100 to 1000 | ≥ 1000 | 10 to 100 | – | –
[2H]C([2H])([2H])NS(=O)(=O)c1ccc(Nc2ncc(C(F)(F)F)c(OC3COCCC3O)n2)cc1 (single isomer, unassigned) [Example 117a] | < 10 | 10 to 100 | 100 to 1000 | 100 to 1000 | 100 to 1000 | 100 to 1000 | – | –
CS(=O)(=O)N1CCC(Nc2ncc(Br)c(OC3CCCCCC3O)n2)CC1 (single isomer, unassigned) [Example 145b] | < 10 | 10 to 100 | 10 to 100 | 10 to 100 | 10 to 100 | 100 to 1000 | – | –
C[C@]1(O)COC[C@H]1Oc1nc(NC2CCN(S(C)(=O)=O)CC2)ncc1C(F)(F)F (relative stereo) [Example 104a, cis-3-methyl-4-((2-((1-(methylsulfonyl)piperidin-4-yl)amino)-5-(trifluoromethyl)pyrimidin-4-yl)oxy)tetrahydrofuran-3-ol] | < 10 | 10 to 100 | 10 to 100 | 10 to 100 | 10 to 100 | 100 to 1000 | – | –

Now from value to compound, other results behind:

IC50 (CDK2/CyclinE1) [nM] | IC50 (CDK1/CyclinB) [nM] | IC50 (CDK4/Cyclin D1) [nM] | IC50 (CDK6/CyclinD1) [nM] | IC50 (CDK7/CyclinH/MAT1) [nM] | IC50 (CDK9/CyclinT1) [nM] | Compound | median PFS (ER+BC; CCNE1 high) [month] | median PFS (ER+BC; CCNE1 low) [month]
< 10 | 10 to 100 | ≥ 1000 | 100 to 1000 | 100 to 1000 | 100 to 1000 | Cc1cnc(Nc2ccc(S(=O)(=O)NC(C)C)cc2)nc1OC1CCCC1O (single isomer, unassigned) [Example 147a] | – | –
< 10 | < 10 | < 10 | < 10 | 100 to 1000 | 100 to 1000 | Cn1cnc(S(=O)(=O)N2CCC(Nc3ncc(C#N)c(OC4CCCC4(C)O)n3)CC2)c1 (single isomer, unassigned) [Example 50a] | – | –
< 10 | 10 to 100 | < 10 | 10 to 100 | 100 to 1000 | 100 to 1000 | Cn1cc(S(=O)(=O)N2CCC(Nc3ncc(C#N)c(OCC4(C)CC(F)(F)C4)n3)CC2)cn1 [Example 61] | – | –
< 10 | < 10 | 10 to 100 | 10 to 100 | 10 to 100 | 100 to 1000 | CNS(=O)(=O)c1ccc(Nc2ncc(C#N)c(OC3CCCC3(C)O)n2)cc1 (single isomer, unassigned) [Example 34a] | – | –
< 10 | 10 to 100 | 100 to 1000 | 100 to 1000 | ≥ 1000 | 100 to 1000 | CC1CCCC(O)C1Oc1nc(Nc2ccc(S(N)(=O)=O)cc2)ncc1C(F)(F)F (single isomer, unassigned) [Example 112a] | – | –
< 10 | 10 to 100 | 100 to 1000 | 100 to 1000 | 100 to 1000 | 100 to 1000 | O=S(=O)(NC1CCOCC1)c1ccc(Nc2ncc(Cl)c(O[C@@H]3CCC[C@@H]3O)n2)cc1 (single isomer, unassigned) [Example 130a, cis-4-((5-chloro-4-((2-hydroxycyclopentyl)oxy)pyrimidin-2-yl)amino)-N-(tetrahydro-2H-pyran-4-yl)benzenesulfonamide] | – | –
< 10 | 10 to 100 | < 10 | 10 to 100 | ≥ 1000 | 10 to 100 | CC1(COc2nc(NC3CCN(S(C)(=O)=O)CC3)ncc2C(F)(F)F)CCCC1 [Example 128] | – | –
